Assays:
hMcm2 and hMcm6 [1] = test: Immunostaining / GFP fluorescence microscopy of MCM nuclear localization in HeLa cells; format: cell-based, human; settings: 36 hrs treatment starting 4 hrs post-transfection
Experimental: (§1) To study the effect of the anticancer compounds on the interaction between hMcm2 and hMcm6 in the cells, immunostaining was performed to detect the sub-cellular localization of the proteins. HeLa cells grown on cover slips (coated with poly-D-lysine) with or without drug treatment were fixed with 4% PFA in PBS at room temperature for 20 min. After permeabilization with 0.1% Triton X-100 and 1% BSA in PBS for 20 min, cells were blocked with 1% BSA and then incubated with rabbit anti-hMcm6 (Santa Cruz; 1:500) and mouse anti-hMcm2 (Becton Dickinson; 1:500) primary antibodies at room temperature for 1 hr. Cells were then incubated with Alexa Fluor 488-conjugated donkey […] antibody and Alexa Fluor 594-conjugated donkey anti-mouse antibody (Invitrogen; 1:500) at room temperature for 1 hr. Three washes with PBS were performed after each round of antibody incubation. Cells were then incubated with Hochest 33852 (Sigma Chemical Company; 1 μg/ml) at room temperature for 15 min for nuclear staining and washed with PBS three times again. At last, cells were mounted and observed under the fluorescence microscope (Nikon TE2000E).
(§2) Because pair-wise interactions among the MCM subunits are required for the MCM heterohexameric ring structure, which is essential for their import into the nucleus, disruption of the interaction between hMcm2 and hMcm6 should destroy the hexamer and result in failure of nuclear localization of MCM proteins. To test this, we employed both indirect fluorescence microscopy (immunostaining) using antibodies against the endogenous MCM proteins and direct fluorescence microscopy after transfection with plasmids to express hMcm2-GFP and hMcm6-GFP in the cells.
(§3) In immunostaining, HeLa cells were treated by 17beta-Deacetyltanghinin for 24 hrs, and the endogenous hMcm2 and hMcm6 were detected by specific antibodies against these proteins. […] In direct fluorescence microscopy, HeLa cells expressing hMcm2-GFP and hMcm6-GFP were treated with 17beta-Deacetyltanghinin for 36 hrs starting at 4 hrs post-transfection with the plasmids expressing hMcm2-GFP and hMcm6-GFP.

hMcm2 and hMcm6 [2] = biological target: T1, hMcm2 and hMcm6 (Homo sapiens, UniProt P49736+Q14566); test: as above; format: cell-based; settings: 24 hrs
T1 construct: the endogenous hMcm2 and hMcm6 were detected by specific antibodies against these proteins; endogenous in cells; host or cells: HeLa
T1 sequence (P49736 2-904): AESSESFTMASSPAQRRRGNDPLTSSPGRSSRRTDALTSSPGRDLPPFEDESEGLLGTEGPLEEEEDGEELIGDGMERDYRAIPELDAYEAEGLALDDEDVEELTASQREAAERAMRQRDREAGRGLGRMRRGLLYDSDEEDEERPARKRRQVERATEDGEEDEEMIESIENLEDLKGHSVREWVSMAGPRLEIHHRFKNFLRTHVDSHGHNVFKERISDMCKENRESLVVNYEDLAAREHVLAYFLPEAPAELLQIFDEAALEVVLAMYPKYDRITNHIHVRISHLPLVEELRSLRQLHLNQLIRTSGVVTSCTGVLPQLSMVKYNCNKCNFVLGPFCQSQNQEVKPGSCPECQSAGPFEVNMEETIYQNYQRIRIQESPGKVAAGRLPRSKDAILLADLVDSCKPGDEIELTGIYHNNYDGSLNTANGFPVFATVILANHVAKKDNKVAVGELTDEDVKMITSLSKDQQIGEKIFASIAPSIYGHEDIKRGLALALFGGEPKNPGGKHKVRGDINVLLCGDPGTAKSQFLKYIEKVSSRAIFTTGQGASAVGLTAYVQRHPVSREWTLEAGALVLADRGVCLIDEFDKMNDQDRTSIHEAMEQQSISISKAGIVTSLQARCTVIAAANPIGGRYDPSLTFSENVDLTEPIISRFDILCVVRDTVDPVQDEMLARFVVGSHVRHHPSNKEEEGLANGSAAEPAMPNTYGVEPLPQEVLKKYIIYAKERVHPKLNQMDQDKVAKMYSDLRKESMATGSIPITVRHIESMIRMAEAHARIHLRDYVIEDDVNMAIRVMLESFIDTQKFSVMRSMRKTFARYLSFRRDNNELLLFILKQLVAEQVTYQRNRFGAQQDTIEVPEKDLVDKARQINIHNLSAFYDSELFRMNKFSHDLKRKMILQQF
T1 sequence (Q14566 whole entry): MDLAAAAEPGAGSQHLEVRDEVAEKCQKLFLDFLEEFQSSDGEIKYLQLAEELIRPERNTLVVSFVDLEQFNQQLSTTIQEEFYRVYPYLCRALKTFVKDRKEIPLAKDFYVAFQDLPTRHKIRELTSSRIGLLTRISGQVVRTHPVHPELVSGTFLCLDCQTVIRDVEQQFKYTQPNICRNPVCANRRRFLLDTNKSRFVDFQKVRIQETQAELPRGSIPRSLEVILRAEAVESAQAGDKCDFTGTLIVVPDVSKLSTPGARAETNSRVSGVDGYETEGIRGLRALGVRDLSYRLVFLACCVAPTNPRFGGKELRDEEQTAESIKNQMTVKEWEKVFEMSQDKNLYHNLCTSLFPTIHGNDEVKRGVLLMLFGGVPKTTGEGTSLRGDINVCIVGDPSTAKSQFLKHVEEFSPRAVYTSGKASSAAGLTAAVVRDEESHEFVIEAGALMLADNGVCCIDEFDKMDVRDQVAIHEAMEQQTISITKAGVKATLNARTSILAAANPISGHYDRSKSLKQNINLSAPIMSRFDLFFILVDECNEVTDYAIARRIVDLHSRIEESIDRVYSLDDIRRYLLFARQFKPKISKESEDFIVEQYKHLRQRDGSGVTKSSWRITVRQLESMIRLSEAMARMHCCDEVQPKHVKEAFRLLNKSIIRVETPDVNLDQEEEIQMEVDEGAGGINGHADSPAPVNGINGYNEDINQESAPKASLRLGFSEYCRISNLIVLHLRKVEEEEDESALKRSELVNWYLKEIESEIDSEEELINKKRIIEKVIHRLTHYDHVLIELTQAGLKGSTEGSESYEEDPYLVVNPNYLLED
Experimental: as §1, §2, §3

[3] = biological target: T2, hMcm2 and hMcm6 chromatin association (Homo sapiens, UniProt P49736+Q14566); test: Chromatin binding assay (pre-RC assembly) in HeLa cells; format: cell-based
T2 construct: endogenous in cells; host or cells: HeLa
T2 sequence (P49736 2-904 limits assumed): as the sequence (P49736 2-904) above
T2 sequence (Q14566 whole entry): as the sequence (Q14566 whole entry) above
Experimental: Cells were harvested by trypsinization and washed twice with cold PBS. Extraction buffer (EB; ˜20 μl/10^6 cells) (100 mM KCl, 50 mM HEPES-KOH pH7.5, 2.5 mM MgCl2, 50 mM NaF, 5 mM Na4P2O7, 0.1 mM NaVO3, 0.5% Triton X-100, 1 mM PMSF, 2 μg/ml Pepstatin A, 20 μg/ml Leupeptin, 20 μg/ml Aprotinin, 0.2 mM Pefabloc, 2 mM Benzamidine HCl and 0.2 mg/ml Bacitracin) was added to resuspend and lyse the cells by pippetting. Cells were set on ice for 10 min, and flicked to mix every 2-3 min during the incubation. A volume of 30% ice-cold sucrose equal to EB containing protease inhibitors as in EB was added to the bottom of tube. The tube was spun at top speed in a microcentrifuge for 10 min to separate the chromatin and free proteins. The supernatant was transferred to a new tube and kept on ice. […]
As the component of pre-RC, the MCM complex plays a central role in the licensing of DNA replication. […] In FIGS. 5A and B, asynchronous Hela cells were treated with 17beta-Deacetyltanghinin for 24 hrs and analyzed by the chromatin binding assay (FIG. 5A). Untreated cells (Untreat.), cells treated with the solvent DMSO, and those treated with 0.2, 0.4 or 0.8∝g/ml 17beta-Deacetyltanghinin were analyzed for pre-RC components in the chromatin and supernatant fractions by immunoblotting (FIG. 5A). […] Each cell sample was also analyzed for cell cycle distribution by flow cytometry (FIG. 5B). […]

[4] = tested on: cancer cells (HeLa, HepG2); test: Flow cytometry / Annexin V staining (cell cycle, apoptosis) in cancer cells; format: cell-based, human
Experimental: Both floating and attached cells were collected and washed once with PBS. Cells were fixed in 70% ethanol for 1 hr to overnight at −20° C., washed thoroughly with PBS, and then stained in 50 μg/ml RNase A, 0.1% Triton X-100, 0.1 mM EDTA (pH 7.4), and 50 μg/ml propidium iodide for 30 min at 4° C. Samples were analyzed with the FACSort instrument (Becton Dickinson).
Moreover, inhibition of DNA replication and subsequent induction of apoptosis by 17beta-Deacetyltanghinin could be shown by flow cytometry. In FIG. 7. Hela cells were blocked at M phase by Nocodazole (Noc.; FIG. 7A), the G1/S transition by mimosine (MMS; FIG. 7B), or at early S phase by Hydroxyurea (HU; FIG. 7C) and then released into fresh medium in the presence of 17beta-Deacetyltanghinin (DAT). The cells at different time points after release were analyzed by follow cytometry. Ayn. means asynchronous cells. Untreated cells and cells treated with the solvent DMSO could complete M, G1 and S phases after release (FIG. 7A). […] Similarly, cells released from the Mimosine (MMS) arrest (at the G1/S transition; FIG. 7B) or Hydroxyurea (HU) arrest (in early S phase; FIG. 7C) could not finish S phase in the presence of 17beta-Deacetyltanghinin.
In FIG. 8A, flow cytometry was performed to analyze the DNA contents in HepG2 and L-02 cells treated with 17beta-Deacetyltanghinin at various concentrations for 24 hrs. In FIG. 8B, Hela cells were treated with 17beta-Deacetyltanghinin for 24 hrs and labeled with Annexin V-Cy3 (Arm. Cy3) for 20 min. Mitoxantrone (MTX), a clinical anticancer drug that can induce apoptosis in cancer cells, was used as a positive control.

Structure (SMILES): COC1C(O)[C@H](O[C@H]2CC[C@]3(C)C4CC[C@]5(C)[C@@H](C6=CC(=O)OC6)CC[C@]5(O)[C@@]45O[C@H]5C[C@@H]3C2)OC(C)[C@@H]1O (stereo partly drawn) [17beta-Deacetyltanghinin, 3β-O-(3-O-methyl-6-deoxy-α-L-glucopyranosyl)-7β,8β-epoxy-14β-hydroxy-card-20(22)-enolide]
- localization of expressed hMcm2-GFP and hMcm6-GFP (direct fluorescence) (hMcm2 and hMcm6 [1]): some of the expressed hMcm2-GFP and hMcm6-GFP located in the cytoplasm
- nuclear localization of endogenous hMcm2 and hMcm6 (immunostaining) (hMcm2 and hMcm6 [2]): impaired
- MCM loading onto chromatin ([3]; HeLa cells released from nocodazole M phase arrest): largely prevented
- hMcm2 and hMcm6 in chromatin fractions ([3]; asynchronous HeLa cells, 24 hrs, 0.2, 0.4 or 0.8 ∝g/ml): significantly reduced
- Annexin V staining (apoptosis) ([4]; HeLa cells, 24 hrs, Annexin V-Cy3): could be stained by Annexin V
- cell cycle progression after release from Nocodazole arrest ([4]; HeLa cells, flow cytometry): could complete mitosis but could not enter S phase
- induction of apoptosis (sub-G1 population, flow cytometry) ([4]; cancer cells): induced apoptotic cell death in cancer cells
